Experiments:
Type in all cases: biochemical
KRAS G12D = target: T1, KRAS G12D (Homo sapiens, UniProt P01116, G12D); experiment: HTRF KRAS-SOS1 interaction assay, KRAS G12D; details: binned ≤2 μM / >2 μM, read-out: Inhibition of KRAS G12D (IC50)
T1 construct: made in house; host or cells: E. coli, e.g. BL21 (DE3)
Procedure, shortened: (§1)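 Read-out: HTRF ratio 665/620 nm after ≥10 min incubation of compound with GST-KRAS/anti-GST-Eu and His-hSOS1/anti-6His-XL665. Duplicate dose series, 10 μM down to 0.01 μM. Buffer HEPES pH 7.4, NaCl, DTT, BSA, Igepal.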

KRAS WT = target: T2, KRAS WT (Homo sapiens, UniProt P01116); experiment: HTRF KRAS-SOS1 interaction assay, wildtype KRAS; details: binned ≤2 μM / >2 μM, read-out: Inhibition of KRAS WT (IC50)
T2 construct: made in house; host or cells: E. coli, e.g. BL21 (DE3)
Procedure, shortened: as §1

KRAS G12V = target: T3, KRAS G12V (Homo sapiens, UniProt P01116, G12V); experiment: HTRF KRAS-SOS1 interaction assay, KRAS G12V; details: binned ≤2 μM / >2 μM, read-out: Inhibition of KRAS G12V (IC50)
T3 construct: made in house; host or cells: E. coli, e.g. BL21 (DE3)
Procedure, shortened: as §1

KRAS G12S = target: T4, KRAS G12S (Homo sapiens, UniProt P01116, G12S); experiment: HTRF KRAS-SOS1 interaction assay, KRAS G12S; details: binned ≤2 μM / >2 μM, read-out: Inhibition of KRAS G12S (IC50)
T4 construct: made in house; host or cells: E. coli, e.g. BL21 (DE3)
Procedure, shortened: as §1

T2 sequence (P01116 1-188 isoform P01116-2): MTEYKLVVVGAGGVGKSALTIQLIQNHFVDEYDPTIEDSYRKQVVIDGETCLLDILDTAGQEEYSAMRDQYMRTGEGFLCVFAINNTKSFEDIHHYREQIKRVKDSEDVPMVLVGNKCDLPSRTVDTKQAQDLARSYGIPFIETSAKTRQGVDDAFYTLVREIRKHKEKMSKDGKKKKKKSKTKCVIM
T4 sequence (P01116 1-188 isoform P01116-2 G12S): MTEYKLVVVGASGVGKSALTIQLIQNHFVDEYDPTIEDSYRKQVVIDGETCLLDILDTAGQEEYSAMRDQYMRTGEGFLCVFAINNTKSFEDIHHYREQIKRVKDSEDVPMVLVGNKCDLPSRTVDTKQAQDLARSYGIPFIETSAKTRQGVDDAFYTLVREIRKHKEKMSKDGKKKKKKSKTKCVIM
T1 sequence (P01116 1-188 isoform P01116-2 G12D): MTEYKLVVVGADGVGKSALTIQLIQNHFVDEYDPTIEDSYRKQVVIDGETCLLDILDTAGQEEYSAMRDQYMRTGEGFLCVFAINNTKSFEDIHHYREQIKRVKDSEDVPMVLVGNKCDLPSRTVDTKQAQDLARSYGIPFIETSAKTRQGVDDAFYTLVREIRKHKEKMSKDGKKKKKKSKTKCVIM
T3 sequence (P01116 1-188 isoform P01116-2 G12V): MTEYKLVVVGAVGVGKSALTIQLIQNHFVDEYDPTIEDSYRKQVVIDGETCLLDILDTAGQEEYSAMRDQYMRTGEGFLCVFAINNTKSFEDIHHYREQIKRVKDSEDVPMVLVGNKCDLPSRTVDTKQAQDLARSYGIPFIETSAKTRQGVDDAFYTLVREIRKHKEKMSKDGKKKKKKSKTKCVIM

SMILES | IC50 (KRAS G12D) [nM] | IC50 (KRAS WT) [nM] | IC50 (KRAS G12V) [nM] | IC50 (KRAS G12S) [nM]
C[C@H](c1cccnc1N)N1CCOc2c(C(F)(F)F)c(-c3ccc(F)c4sc(N)c(C#N)c34)c(F)c3nc(OC[C@@]45CCCN4C[C@@]4(CC4(F)F)C5)nc1c23 (single isomer, unassigned) [Compound 725] | ≤ 2000 | ≤ 2000 | ≤ 2000 | ≤ 2000
C[C@@H]1CN(CC2(COc3nc4c5c(c(C(F)(F)F)c(-c6ccc(F)c7sc(N)c(C#N)c67)c(F)c5n3)OCCN4[C@H](C)c3cccnc3N)CC2)C[C@H](C)O1 [Compound 710, 2-amino-4-(4-((R)-1-(2-aminopyridin-3-yl)ethyl)-2-((1-(((2S,6R)-2,6-dimethylmorpholino)methyl)cyclopropyl)methoxy)-10-fluoro-8-(trifluoromethyl)-5,6-dihydro-4H-[1,4]oxazepino[5,6,7-de]quinazolin-9-yl)-7-fluorobenzo[b]thiophene-3-carbonitrile] | > 2000 | ≤ 2000 | ≤ 2000 | ≤ 2000
C[C@H](c1cc(C2CC2)cnc1N)N1CCOc2c(Cl)c(-c3ccc(F)c4sc(N)c(C#N)c34)c(F)c3nc(OC[C@@]45CCCN4C[C@H](F)C5)nc1c23 [Compound 738, 2-amino-4-(4-((R)-1-(2-amino-5-cyclopropylpyridin-3-yl)ethyl)-8-chloro-10-fluoro-2-(((2R,7aS)-2-fluorotetrahydro-1H-pyrrolizin-7a(5H)-yl)methoxy)-5,6-dihydro-4H-[1,4]oxazepino[5,6,7-de]quinazolin-9-yl)-7-fluorobenzo[b]thiophene-3-carbonitrile] | ≤ 2000 | ≤ 2000 | ≤ 2000 | ≤ 2000
C[C@H](c1cc(F)cnc1N)N1CCOc2c(C(F)(F)F)c(-c3ccc(F)c4sc(N)c(C#N)c34)c(F)c3nc(OC[C@@]45CCCN4CC(=C(F)F)C5)nc1c23 [Compound 675, 2-amino-4-(4-((R)-1-(2-amino-5-fluoropyridin-3-yl)ethyl)-2-(((S)-2-(difluoromethylene)tetrahydro-1H-pyrrolizin-7a(5H)-yl)methoxy)-10-fluoro-8-(trifluoromethyl)-5,6-dihydro-4H-[1,4]oxazepino[5,6,7-de]quinazolin-9-yl)-7-fluorobenzo[b]thiophene-3-carbonitrile] | ≤ 2000 | ≤ 2000 | ≤ 2000 | ≤ 2000
C[C@H](c1cccnc1N)N1CCOc2c(Cl)c(-c3ccc(F)c4sc(N)c(C#N)c34)c(F)c3nc(OC[C@@]45CCCN4C[C@]4(CC4(F)F)C5)nc1c23 [Compound 918, 2-amino-4-(4-((R)-1-(2-aminopyridin-3-yl)ethyl)-8-chloro-2-(((1R,7a′S)-2,2-difluorodihydro-1′H,3′H-spiro[cyclopropane-1,2′-pyrrolizin]-7a′(5′H)-yl)methoxy)-10-fluoro-5,6-dihydro-4H-[1,4]oxazepino[5,6,7-de]quinazolin-9-yl)-7-fluorobenzo[b]thiophene-3-carbonitrile] | ≤ 2000 | ≤ 2000 | ≤ 2000 | ≤ 2000
N#Cc1c(N)sc2c(F)ccc(-c3c(Cl)c4c5c(nc(OC[C@@]67CCCN6C[C@H](F)C7)nc5c3F)N([C@H](/C=C/C3CC3)c3cccnc3N)CCO4)c12 [Compound 676, 2-amino-4-(4-((R,E)-1-(2-aminopyridin-3-yl)-3-cyclopropylallyl)-8-chloro-10-fluoro-2-(((2R,7aS)-2-fluorotetrahydro-1H-pyrrolizin-7a(5H)-yl)methoxy)-5,6-dihydro-4H-[1,4]oxazepino[5,6,7-de]quinazolin-9-yl)-7-fluorobenzo[b]thiophene-3-carbonitrile] | ≤ 2000 | ≤ 2000 | ≤ 2000 | ≤ 2000
CO[C@H]1CCN(C)[C@@H]1COc1nc2c3c(c(C(F)(F)F)c(-c4ccc(F)c5sc(N)c(C#N)c45)c(F)c3n1)OCCN2[C@H](C)c1cc(F)cnc1N (single isomer, unassigned) [Compound 774] | ≤ 2000 | ≤ 2000 | ≤ 2000 | ≤ 2000
N#Cc1c(N)sc2c(F)ccc(-c3c(C(F)(F)F)c4c5c(nc(OCC6(CN7CCC(=CF)CC7)CC6)nc5c3F)N([C@H](CCC3CCOCC3)c3cccnc3N)CCO4)c12 [Compound 905, 2-amino-4-(4-((R)-1-(2-aminopyridin-3-yl)-3-(tetrahydro-2H-pyran-4-yl)propyl)-10-fluoro-2-((1-((4-(fluoromethylene)piperidin-1-yl)methyl)cyclopropyl)methoxy)-8-(trifluoromethyl)-5,6-dihydro-4H-[1,4]oxazepino[5,6,7-de]quinazolin-9-yl)-7-fluorobenzo[b]thiophene-3-carbonitrile] | ≤ 2000 | ≤ 2000 | ≤ 2000 | ≤ 2000
C[C@H](c1cccnc1N)N1CCOc2c(C(F)(F)F)c(-c3ccc(F)c4sc(N)c(C#N)c34)c(F)c3nc(OCC4(CN5CC[C@@H](F)C5)CC4)nc1c23 [Compound 698, 2-amino-4-(4-((R)-1-(2-aminopyridin-3-yl)ethyl)-10-fluoro-2-((1-(((R)-3-fluoropyrrolidin-1-yl)methyl)cyclopropyl)methoxy)-8-(trifluoromethyl)-5,6-dihydro-4H-[1,4]oxazepino[5,6,7-de]quinazolin-9-yl)-7-fluorobenzo[b]thiophene-3-carbonitrile] | ≤ 2000 | ≤ 2000 | ≤ 2000 | ≤ 2000
CNc1sc2c(F)ccc(-c3c(C(F)(F)F)c4c5c(nc(OC[C@@]67CCCN6C[C@H](F)C7)nc5c3F)N([C@H](CCC3CCOCC3)c3cccnc3N)CCO4)c2c1C#N [Compound 709, 4-(4-((R)-1-(2-aminopyridin-3-yl)-3-(tetrahydro-2H-pyran-4-yl)propyl)-10-fluoro-2-(((2R,7aS)-2-fluorotetrahydro-1H-pyrrolizin-7a(5H)-yl)methoxy)-8-(trifluoromethyl)-5,6-dihydro-4H-[1,4]oxazepino[5,6,7-de]quinazolin-9-yl)-7-fluoro-2-(methylamino)benzo[b]thiophene-3-carbonitrile] | ≤ 2000 | ≤ 2000 | ≤ 2000 | ≤ 2000
COC[C@H](c1cccnc1N)N1CCOc2c(C(F)(F)F)c(-c3ccc(F)c4sc(N)c(C#N)c34)c(F)c3nc(OC[C@@]45CCCN4C[C@H](F)C5)nc1c23 [Compound 684, 2-amino-4-(4-((S)-1-(2-aminopyridin-3-yl)-2-methoxyethyl)-10-fluoro-2-(((2R,7aS)-2-fluorotetrahydro-1H-pyrrolizin-7a(5H)-yl)methoxy)-8-(trifluoromethyl)-5,6-dihydro-4H-[1,4]oxazepino[5,6,7-de]quinazolin-9-yl)-7-fluorobenzo[b]thiophene-3-carbonitrile] | ≤ 2000 | ≤ 2000 | ≤ 2000 | ≤ 2000
N#Cc1c(N)sc2c(F)ccc(-c3c(C(F)(F)F)c4c5c(nc(OC[C@@]67CCCN6CC(=C(F)F)C7)nc5c3F)N([C@H](CCC3CCOCC3)c3cccnc3N)CCO4)c12 [Compound 808, 2-amino-4-(4-((R)-1-(2-aminopyridin-3-yl)-3-(tetrahydro-2H-pyran-4-yl)propyl)-2-(((S)-2-(difluoromethylene)tetrahydro-1H-pyrrolizin-7a(5H)-yl)methoxy)-10-fluoro-8-(trifluoromethyl)-5,6-dihydro-4H-[1,4]oxazepino[5,6,7-de]quinazolin-9-yl)-7-fluorobenzo[b]thiophene-3-carbonitrile] | ≤ 2000 | ≤ 2000 | ≤ 2000 | ≤ 2000
N#Cc1c(N)sc2c(F)ccc(-c3c(Cl)c4c5c(nc(OC[C@@]67CCCN6C[C@H](F)C7)nc5c3F)N(Cc3cccnc3N)C3COCC3CO4)c12 (mixture of isomers) [Compound 868, 2-amino-4-(12-((2-aminopyridin-3-yl)methyl)-6-chloro-4-fluoro-2-(((2R,7aS)-2-fluorotetrahydro-1H-pyrrolizin-7a (5H)-yl)methoxy)-8a,9,11a, 12-tetrahydro-8H, 11H-furo[3′,4′: 6,7][1,5]oxazocino[4,3,2-de]quinazolin-5-yl)-7-fluorobenzo[b]thiophene-3-carbonitrile] | ≤ 2000 | ≤ 2000 | ≤ 2000 | ≤ 2000
C#C[C@H](c1cccnc1N)N1CCOc2c(Cl)c(-c3ccc(F)c4sc(N)c(C#N)c34)c(F)c3nc(OC[C@@]45CCCN4C[C@H](F)C5)nc1c23 [Compound 904, 2-amino-4-(4-((R)-1-(2-aminopyridin-3-yl)prop-2-yn-1-yl)-8-chloro-10-fluoro-2-(((2R,7aS)-2-fluorotetrahydro-1H-pyrrolizin-7a(5H)-yl)methoxy)-5,6-dihydro-4H-[1,4]oxazepino[5,6,7-de]quinazolin-9-yl)-7-fluorobenzo[b]thiophene-3-carbonitrile] | ≤ 2000 | ≤ 2000 | ≤ 2000 | ≤ 2000
CC[S+]([O-])[C@@H]1C[C@]2(COc3nc4c5c(c(Cl)c(-c6ccc(F)c7sc(N)c(C#N)c67)c(F)c5n3)OCCN4[C@H](C)c3cccnc3N)CCC[N+]2([O-])C1 (mixture of isomers) [Compound 626, (2R,7aS)-7a-(((9-(2-amino-3-cyano-7-fluorobenzo[b]thiophen-4-yl)-4-((R)-1-(2-aminopyridin-3-yl)ethyl)-8-chloro-10-fluoro-5,6-dihydro-4H-[1,4]oxazepino[5,6,7-de]quinazolin-2-yl)oxy)methyl)-2-(ethylsulfinyl)hexahydropyrrolizine 4(1H)-oxide] | ≤ 2000 | ≤ 2000 | ≤ 2000 | ≤ 2000
